According to PMC7316778 (Nature Communications, 2020):
“And” between values parts separate entries of the source, which are not always exact repeats. Equal values may be shown once. Read-outs that look alike come from different tables or passages of the source.

Columns and labels:
[1] = target: MAP2K1 (MEK1) (Homo sapiens, UniProt Q02750); experiment: SelectScreen kinase assay
Protocol: (§1) Selectivity profiling assays were performed by the Invitrogen SelectScreen™ Services. […] The concentration of ATP was selected to be equal to the KM, unless indicated otherwise.

[2] = target: NEK8 (Homo sapiens, UniProt Q86SG6); experiment: SelectScreen kinase assay
Protocol: as §1

[3] = target: MAPK7 (ERK5) (Homo sapiens, UniProt Q13164); experiment: SelectScreen kinase assay
MAPK7 (ERK5), sequence (Q13164 whole entry): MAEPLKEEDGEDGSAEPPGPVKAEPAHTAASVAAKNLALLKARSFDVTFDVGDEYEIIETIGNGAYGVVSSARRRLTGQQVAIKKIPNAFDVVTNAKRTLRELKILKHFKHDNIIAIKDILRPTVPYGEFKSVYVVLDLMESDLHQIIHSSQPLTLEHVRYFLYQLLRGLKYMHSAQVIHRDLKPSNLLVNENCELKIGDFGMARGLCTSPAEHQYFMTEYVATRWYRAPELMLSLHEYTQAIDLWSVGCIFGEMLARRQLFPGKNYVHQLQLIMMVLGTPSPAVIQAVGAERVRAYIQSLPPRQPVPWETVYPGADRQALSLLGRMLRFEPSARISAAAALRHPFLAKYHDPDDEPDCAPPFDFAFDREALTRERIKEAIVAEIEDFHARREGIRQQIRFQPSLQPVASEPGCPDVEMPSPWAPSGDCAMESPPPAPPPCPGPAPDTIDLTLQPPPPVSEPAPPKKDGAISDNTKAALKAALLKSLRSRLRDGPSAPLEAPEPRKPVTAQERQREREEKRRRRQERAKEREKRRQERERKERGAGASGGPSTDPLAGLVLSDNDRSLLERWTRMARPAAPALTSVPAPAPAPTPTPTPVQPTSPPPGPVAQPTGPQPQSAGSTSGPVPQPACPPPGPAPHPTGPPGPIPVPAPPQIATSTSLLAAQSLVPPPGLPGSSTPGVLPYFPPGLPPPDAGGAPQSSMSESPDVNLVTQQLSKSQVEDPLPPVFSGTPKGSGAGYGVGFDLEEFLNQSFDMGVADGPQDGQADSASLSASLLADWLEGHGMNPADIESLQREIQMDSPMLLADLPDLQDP
Protocol: as §1

[4] = target: T1, DCAMKL1 (DCLK1) (Homo sapiens, UniProt O15075); experiment: SelectScreen kinase assay
T1 sequence (O15075 1-740): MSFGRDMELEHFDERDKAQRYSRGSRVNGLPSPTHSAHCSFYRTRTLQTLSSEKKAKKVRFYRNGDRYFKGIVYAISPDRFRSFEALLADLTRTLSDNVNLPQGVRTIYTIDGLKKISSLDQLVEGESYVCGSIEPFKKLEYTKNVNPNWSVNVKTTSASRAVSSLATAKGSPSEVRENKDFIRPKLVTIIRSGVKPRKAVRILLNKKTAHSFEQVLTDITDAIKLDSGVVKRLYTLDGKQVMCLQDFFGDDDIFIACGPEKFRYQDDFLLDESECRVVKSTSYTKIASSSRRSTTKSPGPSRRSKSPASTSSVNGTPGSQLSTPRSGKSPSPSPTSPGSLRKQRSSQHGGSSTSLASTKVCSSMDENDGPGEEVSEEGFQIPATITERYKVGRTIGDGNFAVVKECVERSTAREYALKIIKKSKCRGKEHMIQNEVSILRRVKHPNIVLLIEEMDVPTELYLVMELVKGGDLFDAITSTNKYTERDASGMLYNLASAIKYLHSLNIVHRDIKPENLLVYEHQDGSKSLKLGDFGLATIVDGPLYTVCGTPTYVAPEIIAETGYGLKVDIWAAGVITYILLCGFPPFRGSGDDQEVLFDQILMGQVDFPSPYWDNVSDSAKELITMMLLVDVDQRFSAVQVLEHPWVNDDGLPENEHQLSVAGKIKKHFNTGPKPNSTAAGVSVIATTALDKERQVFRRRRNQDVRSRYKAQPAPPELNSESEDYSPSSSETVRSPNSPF
Protocol: as §1

[5] = target: STK32B (YANK2) (Homo sapiens, UniProt Q9NY57); experiment: SelectScreen kinase assay
STK32B (YANK2), sequence (Q9NY57 whole entry): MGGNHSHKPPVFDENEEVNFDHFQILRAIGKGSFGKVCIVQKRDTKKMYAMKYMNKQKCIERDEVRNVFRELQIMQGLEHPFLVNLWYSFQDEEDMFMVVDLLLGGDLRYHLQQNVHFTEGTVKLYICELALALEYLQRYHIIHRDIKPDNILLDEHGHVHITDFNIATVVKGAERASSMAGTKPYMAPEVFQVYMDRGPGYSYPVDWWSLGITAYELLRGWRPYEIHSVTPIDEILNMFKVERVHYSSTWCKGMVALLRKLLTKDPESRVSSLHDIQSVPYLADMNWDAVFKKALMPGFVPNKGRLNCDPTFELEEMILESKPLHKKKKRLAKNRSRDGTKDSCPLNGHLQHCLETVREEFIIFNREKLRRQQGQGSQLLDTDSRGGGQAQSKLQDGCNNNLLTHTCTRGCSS
Protocol: as §1

[6] = target: STK24 (MST3) (Homo sapiens, UniProt Q9Y6E0); experiment: SelectScreen kinase assay
STK24 (MST3), sequence (Q9Y6E0 whole entry): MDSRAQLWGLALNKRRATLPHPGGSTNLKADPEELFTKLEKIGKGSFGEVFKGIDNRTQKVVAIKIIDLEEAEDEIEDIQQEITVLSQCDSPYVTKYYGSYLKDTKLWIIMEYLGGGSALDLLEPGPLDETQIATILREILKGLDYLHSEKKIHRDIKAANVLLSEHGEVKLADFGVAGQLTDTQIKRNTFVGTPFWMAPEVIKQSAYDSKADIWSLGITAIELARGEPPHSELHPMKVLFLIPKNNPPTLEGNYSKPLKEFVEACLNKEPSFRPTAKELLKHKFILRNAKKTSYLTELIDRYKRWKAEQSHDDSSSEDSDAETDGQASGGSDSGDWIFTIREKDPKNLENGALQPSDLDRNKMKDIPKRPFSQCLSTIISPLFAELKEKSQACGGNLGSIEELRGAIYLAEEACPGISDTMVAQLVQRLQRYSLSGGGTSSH
Protocol: as §1

[7] = target: AKT2 (PKB beta) (Homo sapiens, UniProt P31751); experiment: SelectScreen kinase assay; conditions: for Inhibition at 1 µM (%): AKT2 (PKB beta), ZLYTE, ATP Km app
AKT2 (PKB beta), sequence (P31751 whole entry): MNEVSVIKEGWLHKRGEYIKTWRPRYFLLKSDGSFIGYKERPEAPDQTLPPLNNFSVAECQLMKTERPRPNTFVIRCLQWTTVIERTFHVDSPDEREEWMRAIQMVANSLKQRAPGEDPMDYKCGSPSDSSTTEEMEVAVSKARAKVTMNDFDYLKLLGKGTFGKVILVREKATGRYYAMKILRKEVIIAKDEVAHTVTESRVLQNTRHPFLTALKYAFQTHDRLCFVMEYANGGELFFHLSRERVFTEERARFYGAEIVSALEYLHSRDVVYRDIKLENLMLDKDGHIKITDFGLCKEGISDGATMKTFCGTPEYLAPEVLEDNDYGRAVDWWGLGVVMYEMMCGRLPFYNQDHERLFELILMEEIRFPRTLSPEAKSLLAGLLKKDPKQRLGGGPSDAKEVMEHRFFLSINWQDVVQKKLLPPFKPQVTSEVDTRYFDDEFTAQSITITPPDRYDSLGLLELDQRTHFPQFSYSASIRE
Protocol: as §1

[8] = target: PKN2 (PRK2) (Homo sapiens, UniProt Q16513); experiment: SelectScreen kinase assay
PKN2 (PRK2), sequence (Q16513 whole entry): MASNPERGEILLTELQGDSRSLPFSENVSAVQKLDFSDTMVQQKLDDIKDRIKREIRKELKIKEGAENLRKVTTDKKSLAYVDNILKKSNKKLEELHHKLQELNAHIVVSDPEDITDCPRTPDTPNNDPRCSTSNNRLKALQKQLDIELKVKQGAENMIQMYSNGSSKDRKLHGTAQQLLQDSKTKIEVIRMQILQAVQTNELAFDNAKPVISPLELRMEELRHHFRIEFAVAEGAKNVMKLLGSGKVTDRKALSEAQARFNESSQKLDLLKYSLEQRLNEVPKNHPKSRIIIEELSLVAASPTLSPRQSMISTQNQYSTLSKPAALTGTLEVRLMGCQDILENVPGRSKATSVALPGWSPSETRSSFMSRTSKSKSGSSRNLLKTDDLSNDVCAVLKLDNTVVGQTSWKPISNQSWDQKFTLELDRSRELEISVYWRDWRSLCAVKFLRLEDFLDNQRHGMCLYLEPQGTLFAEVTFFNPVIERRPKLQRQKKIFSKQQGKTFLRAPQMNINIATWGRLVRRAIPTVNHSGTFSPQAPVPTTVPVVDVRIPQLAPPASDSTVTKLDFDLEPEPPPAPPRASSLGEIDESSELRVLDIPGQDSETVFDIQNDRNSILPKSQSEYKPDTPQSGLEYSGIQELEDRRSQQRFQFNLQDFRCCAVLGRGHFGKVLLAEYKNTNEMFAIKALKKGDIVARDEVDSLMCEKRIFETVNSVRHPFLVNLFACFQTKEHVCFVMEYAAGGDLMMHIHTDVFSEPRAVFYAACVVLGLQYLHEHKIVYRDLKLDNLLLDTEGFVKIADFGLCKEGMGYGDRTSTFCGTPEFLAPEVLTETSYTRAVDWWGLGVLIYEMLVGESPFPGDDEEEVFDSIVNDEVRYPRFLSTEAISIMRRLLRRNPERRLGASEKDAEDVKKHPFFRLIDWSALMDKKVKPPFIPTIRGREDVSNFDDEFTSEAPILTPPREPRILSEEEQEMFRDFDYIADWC
Protocol: as §1

[9] = target: FES^S700C (Homo sapiens, UniProt P07332, S700C); experiment: Inhibitor washout by dialysis; type: binding; parameters: expressed in transfected cells; host or cells: HEK293T (transient, PEI)
FES^S700C, sequence (P07332 whole entry S700C): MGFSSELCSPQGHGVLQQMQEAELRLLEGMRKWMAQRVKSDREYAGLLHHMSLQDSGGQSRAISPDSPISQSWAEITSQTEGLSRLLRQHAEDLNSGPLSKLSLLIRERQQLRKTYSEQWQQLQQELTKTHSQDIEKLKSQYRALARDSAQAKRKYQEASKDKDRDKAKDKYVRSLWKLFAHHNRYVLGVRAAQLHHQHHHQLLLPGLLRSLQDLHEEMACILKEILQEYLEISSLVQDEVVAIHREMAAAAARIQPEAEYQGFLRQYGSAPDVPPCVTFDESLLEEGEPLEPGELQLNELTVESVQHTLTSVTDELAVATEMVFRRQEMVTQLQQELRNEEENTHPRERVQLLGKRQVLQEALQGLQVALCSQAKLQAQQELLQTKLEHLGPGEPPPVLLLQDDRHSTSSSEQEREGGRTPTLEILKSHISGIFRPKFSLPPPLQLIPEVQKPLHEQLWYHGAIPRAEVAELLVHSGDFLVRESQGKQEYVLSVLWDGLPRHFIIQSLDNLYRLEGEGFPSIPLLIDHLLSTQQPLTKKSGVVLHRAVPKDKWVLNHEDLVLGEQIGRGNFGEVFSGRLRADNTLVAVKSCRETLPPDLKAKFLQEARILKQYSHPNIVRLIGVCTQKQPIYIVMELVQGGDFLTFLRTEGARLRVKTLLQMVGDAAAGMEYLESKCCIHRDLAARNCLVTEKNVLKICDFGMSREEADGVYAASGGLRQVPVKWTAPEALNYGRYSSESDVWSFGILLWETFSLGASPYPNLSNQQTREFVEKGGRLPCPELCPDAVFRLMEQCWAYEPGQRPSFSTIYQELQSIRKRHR

[10] = target: CDK1/cyclin B (Homo sapiens, UniProt P06493); experiment: SelectScreen kinase assay; conditions: 1 h, 1 μM WEL028, 1 h preincubation
Protocol: as §1

[11] = target: RIPK2 (Homo sapiens, UniProt O43353); experiment: SelectScreen kinase assay
Protocol: as §1

[12] = 1 h, 1 μM WEL028, 1 h preincubation

NEK8, sequence (Q86SG6 whole entry): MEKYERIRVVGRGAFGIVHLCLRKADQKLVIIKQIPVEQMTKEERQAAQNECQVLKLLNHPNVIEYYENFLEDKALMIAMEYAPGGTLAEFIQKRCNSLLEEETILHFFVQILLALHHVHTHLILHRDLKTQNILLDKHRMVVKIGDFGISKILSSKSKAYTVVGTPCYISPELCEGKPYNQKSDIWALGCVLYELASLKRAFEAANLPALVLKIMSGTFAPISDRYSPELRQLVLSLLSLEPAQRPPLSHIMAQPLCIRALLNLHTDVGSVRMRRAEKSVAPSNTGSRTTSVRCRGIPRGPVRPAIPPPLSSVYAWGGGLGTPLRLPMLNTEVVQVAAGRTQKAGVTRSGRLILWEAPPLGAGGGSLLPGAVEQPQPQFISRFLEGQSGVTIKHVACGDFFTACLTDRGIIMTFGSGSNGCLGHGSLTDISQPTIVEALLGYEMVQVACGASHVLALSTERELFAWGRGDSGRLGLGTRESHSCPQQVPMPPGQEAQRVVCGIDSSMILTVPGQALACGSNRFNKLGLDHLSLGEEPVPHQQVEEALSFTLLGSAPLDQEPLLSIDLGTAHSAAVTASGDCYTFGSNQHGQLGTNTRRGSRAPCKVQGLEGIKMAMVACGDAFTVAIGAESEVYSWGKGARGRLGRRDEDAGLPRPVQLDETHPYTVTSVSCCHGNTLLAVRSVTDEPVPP
MAP2K1 (MEK1), sequence (Q02750 whole entry, species assumed): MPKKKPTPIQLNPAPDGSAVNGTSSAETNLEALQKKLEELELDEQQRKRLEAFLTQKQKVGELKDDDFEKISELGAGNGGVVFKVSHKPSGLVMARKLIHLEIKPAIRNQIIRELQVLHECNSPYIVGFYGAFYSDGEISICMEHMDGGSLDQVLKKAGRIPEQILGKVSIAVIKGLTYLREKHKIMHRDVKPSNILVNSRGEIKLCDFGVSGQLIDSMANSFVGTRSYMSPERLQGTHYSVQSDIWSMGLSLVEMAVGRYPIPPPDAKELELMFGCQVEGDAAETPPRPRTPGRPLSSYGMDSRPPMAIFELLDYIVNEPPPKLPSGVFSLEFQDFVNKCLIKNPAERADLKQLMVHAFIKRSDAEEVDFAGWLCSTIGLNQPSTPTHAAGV

C#CCOc1ccc(Nc2ncc(Cl)c(Nc3ccccc3NC(=O)C=C)n2)c(OC)c1 [Compound 6]
IC50 [1]: 251 nM | inhibition at 10 µM ([1]; 1 h, log[inhibitor] (M) -5.00, ZLYTE, ATP 100): 110% | inhibition at 3.311 µM ([1]; 1 h, log[inhibitor] (M) -5.48, ZLYTE, ATP 100): 106% | inhibition at 1.122 µM ([1]; 1 h, log[inhibitor] (M) -5.95, ZLYTE, ATP 100): 106% | inhibition at 0.3715 µM ([1]; 1 h, log[inhibitor] (M) -6.43, ZLYTE, ATP 100): 78% | inhibition at 0.123 µM ([1]; 1 h, log[inhibitor] (M) -6.91, ZLYTE, ATP 100): 44% | inhibition at 0.04074 µM ([1]; 1 h, log[inhibitor] (M) -7.39, ZLYTE, ATP 100): 29% | inhibition at 0.0138 µM ([1]; 1 h, log[inhibitor] (M) -7.86, ZLYTE, ATP 100): 40% | inhibition at 0.001514 µM ([1]; 1 h, log[inhibitor] (M) -8.82, ZLYTE, ATP 100): 19% | inhibition at 0.0004898 µM ([1]; 1 h, log[inhibitor] (M) -9.31, ZLYTE, ATP 100): 18% | inhibition at 0.004571 µM ([1]; 1 h, log[inhibitor] (M) -[…], ZLYTE, ATP 100): 27% | Apparent fold selectivity ([1]; IC50 on that kinase divided by IC50 on FES^S700C): 60 fold | Inhibition at 1 µM (%) ([1]; MAP2K1 (MEK1), 1 µM, ZLYTE, ATP 100, listed as WEL028, 1 µM): 108% | inhibition at 1 µM ([1]; read-out: Inhibition at 1 µM (%), MAP2K1 (MEK1), 1 µM, ZLYTE, ATP 100): 113% | inhibition at 1 µM [2, 12]: 7% | Inhibition at 1 µM (%) ([2]; NEK8, 1 µM, LanthaScreen Binding, listed as WEL028, 1 µM): 2% and 12% | inhibition at 1 µM [3, 12]: 4% | Inhibition at 1 µM (%) ([3]; MAPK7 (ERK5), 1 µM, ZLYTE, ATP Km app, listed as WEL028, 1 µM): 3% | inhibition at 1 µM ([3]; read-out: Inhibition at 1 µM (%), MAPK7 (ERK5), 1 µM, ZLYTE, ATP Km app): 4% | Inhibition (%) ([4]; 1 μM WEL028, 1 h preincubation): 4% | Inhibition at 1 µM (%) ([4]; DCAMKL1 (DCLK1), 1 µM, ZLYTE, ATP Km app, listed as WEL028, 1 µM): 5% | inhibition at 1 µM ([4]; read-out: Inhibition at 1 µM (%), DCAMKL1 (DCLK1), 1 µM, ZLYTE, ATP Km app): 3% | Inhibition at 1 µM (%) ([5]; 1 µM, LanthaScreen Binding, listed as WEL028, 1 µM): 6% | inhibition at 1 µM [5, 12]: 7% | inhibition at 1 µM ([5]; read-out: Inhibition at 1 µM (%), 1 µM, LanthaScreen Binding): 7% | Inhibition (%) ([6]; 1 μM WEL028, 1 h preincubation): 12% | Inhibition at 1 µM (%) ([6]; 1 µM, ZLYTE, ATP Km app, listed as WEL028, 1 µM): 15% | inhibition at 1 µM ([6]; read-out: Inhibition at 1 µM (%), 1 µM, ZLYTE, ATP Km app): 9% | inhibition at 1 µM [7, 12]: -1% | Inhibition at 1 µM (%) [7]: -2% | Inhibition at 1 µM (%) ([7]; listed as WEL028, 1 µM): 0% | inhibition at 1 µM [8, 12]: 8% | Inhibition at 1 µM (%) ([8]; PKN2 (PRK2), 1 µM, LanthaScreen Binding, listed as WEL028, 1 µM): 9% | inhibition at 1 µM ([8]; read-out: Inhibition at 1 µM (%), PKN2 (PRK2), 1 µM, LanthaScreen Binding): 6% | IC80 ([9]; concentration used for dialysis, 30 min, rt): 231 nM | Relative FES labeling (% of vehicle), Pre-dialysis ([9]; inhibitor at IC80, WEL033 250 nM, replicates, listed as WEL028): 2.76% and 2.085% and 2.269% | Relative FES labeling (% of vehicle), Post-dialysis ([9]; overnight dialysis at 4 °C, WEL033 250 nM, replicates, listed as WEL028): 10.52% and 32.8765% and 11.5588% | inhibition at 1 µM [10]: 1% | inhibition at 1 µM ([11]; 1 h): 1% | inhibition at 1 µM ([11]; read-out: Inhibition at 1 µM (%)): 1%
